Test results reported in patent USRE43327E1, “Hydrophobic polyamine analogs and methods for their use” (Aminex Therapeutics, Inc., priority 2001, dated 2012).
Values joined by “and” are separate entries in the source; they are usually repeats but may differ in a detail not shown here. Equal entries are not always repeated. Where two headings read alike, the source gives them in different places.

Legend:
Format in all cases: cell-based
[1] = tested on: A375; assay: Growth inhibition assay (MTS/PMS) with DFMO, A375; details: in the presence of DFMO (1-5 mM), 1 mM AG, 0.5 μM SPD, six days; repeat determinations; read-out: Cell Line EC50 A375
Experimental: (§1) Medias were obtained from Mediatech, Inc. (Herdon, Va.) and serums from Gibco BRL (Gaithersburg, Md.). 50 U/ml penicillin, 50 μg/ml streptomycin and 2 mM L-glutamine (all from Bio Whittaker, Walkersville, Md.) were included in all cultures. […] When cells were cultured with polyamines or ORI compounds, 1 mM aminoguanidine (AG; Sigma) was included to inhibit serum amine oxidase activity.

[2] = tested on: SK-OV-3; assay: Growth inhibition assay (MTS/PMS) with DFMO, SK-OV-3; details: in the presence of DFMO (1-5 mM), 1 mM AG, 0.5 μM SPD, six days; repeat determinations; read-out: Cell Line EC50 SK-OV-3
Experimental: as §1

[3] = tested on: MDA-MB-231; assay: Growth inhibition assay (MTS/PMS) with DFMO, MDA-MB-231; details: in the presence of DFMO (1-5 mM), 1 mM AG, 0.5 μM SPD, six days; repeat determinations; read-out: Cell Line EC50 MDA-MB-231
Experimental: as §1

[4] = tested on: PC-3; assay: Growth inhibition assay (MTS/PMS) with DFMO, PC-3; details: in the presence of DFMO (1-5 mM), 1 mM AG, 0.5 μM SPD, six days; repeat determinations; read-out: Cell Line EC50 PC-3
Experimental: as §1

[5] = tested on: 4 cell lines (A375, MDA-MB-231, PC-3, SK-OV-3); assay: Growth inhibition with DFMO, average over 4 cell lines; details: with DFMO
Experimental: Cells were plated in 96-well plates such that they would be in log growth for the duration of the assay. The day after plating, PAs were added to the cells, and growth, if any, permitted to continue for six days in the presence of 1 mM AG and 0.5 μM SPD to insure that any growth inhibition was not the result of depletion of external polyamines in the media. At the end of the six days, cell growth was measured by MTS/PMS dye assay (Cell Titer 96 Aqueous Non-Radioactive Cell Proliferation Assay; Promega, Madison, Wis.).

[6] = tested on: PC-3; assay: Growth inhibition assay, PA alone, PC-3; details: PA alone (no DFMO), six days, repeat determinations, read-out: Cell Line IC50 PC-3
Experimental: as §1

[7] = tested on: SK-OV-3; assay: Growth inhibition assay, PA alone, SK-OV-3; details: PA alone (no DFMO), six days, repeat determinations, read-out: Cell Line IC50 SK-OV-3
Experimental: as §1

[8] = tested on: MDA-MB-231; assay: Growth inhibition assay, PA alone, MDA-MB-231; details: PA alone (no DFMO), six days, repeat determinations, read-out: Cell Line IC50 MDA-MB-231
Experimental: as §1

[9] = tested on: A375; assay: Growth inhibition assay, PA alone, A375; details: PA alone (no DFMO), six days, repeat determinations, read-out: Cell Line IC50 A375
Experimental: as §1

[10] = Table 3, average over cell lines, read-out: AVG. EC50
[11] = Homo sapiens, MDA-MB-231, 144 h
[12] = Table 2, average EC50 for 4 cell lines, read-out: Ave EC50 value

Row | Compound | EC50 [1] | EC50 [2] | EC50 [3] | EC50 [4] | EC50 [5, 10] | IC50 [6] | IC50 [7] | IC50 [8] | IC50 [9] | IC50 ([6]; Homo sapiens, PC-3, 144 h) | IC50 ([7]; Homo sapiens, SK-OV-3, 144 h) | IC50 [8, 11] | IC50 ([9]; Homo sapiens, A-375, 144 h) | EC50 [5, 12]
1 | CCCCCCCCCCCCCCCCC(=O)NCCCC[C@H](N)C(=O)NCCCNCCCCNCCCN [IA3] | < 0.01 µM and 0.01 µM | 0.097 µM and 0.167 µM | 0.032 µM and 0.018 µM | 0.022 µM | 0.053 µM |  |  |  |  |  |  |  |  | 
2 | CCCCCCCCCCCCCC(=O)NCCCC[C@H](N)C(=O)NCCCNCCCCNCCCN [IA5] | 0.025 µM | 4.6 µM | 0.208 µM | 0.189 µM | 1.26 µM | 9.87 µM | 21.5 µM | > 30 µM | > 30 µM |  |  |  |  | 
3 | CCCCCCCC(=O)NCCCC[C@H](N)C(=O)NCCCNCCCCNCCCN [IA7] | 2.3 µM and 1.75 µM | > 30 µM | 1.12 µM | 1.35 µM and 0.853 µM | 6.23 µM | > 30 µM | > 30 µM | > 30 µM | > 30 µM |  |  |  |  | 
4 | NCCCNCCCCNCCCNC(=O)[C@@H](N)CCCCNC(=O)c1ccccc1 [IA24] | 1.56 µM |  |  | > 30 µM |  | > 30 µM |  |  | > 30 µM |  |  |  |  | 
5 | NCCCNCCCCNCCCNC(=O)[C@@H](N)CCCCNC(=O)c1ccc(N)cc1 [IA28] | 1.66 µM | > 30 µM | > 30 µM | 0.982 µM |  | > 30 µM | > 30 µM | > 30 µM | > 30 µM |  |  |  |  | 
6 | NCCCNCCCCNCCCNC(=O)[C@H](N)CCCCNC(=O)C(F)(F)C(F)(F)C(F)(F)F [IB39] |  | > 100 µM | 52.5 µM | > 100 µM |  | > 100 µM | > 100 µM | 4.26 µM |  |  |  |  |  | 
7 | CC(C)(C)OC(=O)NCCCC[C@@H](N)C(=O)NCCCNCCCCNCCCN [IB41] |  |  | 31.9 µM | 6.73 µM |  |  |  |  |  |  |  |  |  | 
8 | NCCCC[C@H](NC(=O)c1ccccc1)C(=O)NCCCNCCCCNCCCN [ID24] | 5.98 µM | > 30 µM | 4.75 µM | 3.3 µM |  | > 30 µM | > 30 µM | > 30 µM | > 30 µM |  |  |  |  | 
9 | NCCCCC(NC(=O)c1ccco1)C(=O)NCCCNCCCCNCCCN (stereo not shown) [ID25] | 8.78 µM | > 30 µM | 8.76 µM | 5.27 µM |  | > 30 µM | > 30 µM | > 30 µM | > 30 µM |  |  |  |  | 
10 | CCCCCCCCCCCCCCCC(=O)NCCCC[C@H](NC(=O)CCCCCCCCCCCCCCC)C(=O)NCCCNCCCCNCCCN [IE4] |  | 0.132 µM | 0.267 µM | 0.2 µM |  | 21.5 µM | 7.25 µM | 17.9 µM |  |  |  |  |  | 
11 | CCS(=O)(=O)NCCCC[C@H](N)C(=O)NCCCNCCCCNCCCN [IIA2] | > 30 µM | > 30 µM |  | > 30 µM |  | > 30 µM | > 30 µM |  | > 30 µM |  |  |  |  | 
12 | NCCCNCCCCNCCCNC(=O)[C@@H](N)CCCCNS(=O)(=O)c1ccccc1 [IIA16] | 1.21 µM | > 30 µM | 2.57 µM | 0.72 µM |  | > 30 µM | > 30 µM | > 30 µM | > 30 µM |  |  |  |  | 
13 | Cc1cc(C)c(S(=O)(=O)NCCCC[C@H](N)C(=O)NCCCNCCCCNCCCN)c(C)c1 [IIA17] | 0.629 µM | 2.59 µM | < 1 µM | 0.18 µM |  | > 30 µM | > 30 µM | 605 µM | > 30 µM |  |  |  |  | 
14 | NCCCNCCCCNCCCNC(=O)[C@@H](N)CCCCNS(=O)(=O)c1ccc(CNC(=O)c2ccc(Cl)cc2)s1 [IIA21] |  |  | 1.4 µM | 0.46 µM |  |  |  |  |  |  |  |  |  | 
15 | CCS(=O)(=O)NCCCC[C@@H](N)C(=O)NCCCNCCCCNCCCN [IIB2] | 7.25 µM | > 30 µM |  | 3.64 µM |  | > 30 µM | > 30 µM |  | > 30 µM |  |  |  |  | 
16 | Cc1cc(C)c(S(=O)(=O)NCCCC[C@@H](N)C(=O)NCCCNCCCCNCCCN)c(C)c1 [IIB17] | 1.52 µM | 26.2 µM |  | 0.919 µM |  | > 30 µM | > 30 µM |  | > 30 µM |  |  |  |  | 
17 | CCCCCCCCCCCCCCCCS(=O)(=O)NCCCC[C@H](NS(=O)(=O)CCCCCCCCCCCCCCCC)C(=O)NCCCNCCCCNCCCN [IIE10] |  | 0.272 µM | 0.392 µM | 0.152 µM |  | 14.3 µM | 20.1 µM | 24.5 µM |  |  |  |  |  | 
18 | CCCCC/C=C\C/C=C\CCCCCCCC(=O)NCCCC[C@H](N)C(=O)NCCCNCCCCNCCCN [IIIA5] | 0.084 µM |  | 0.207 µM |  |  |  |  | > 30 µM | > 30 µM |  |  |  |  | 
19 | CCCC/C=C\CCCCCCCCCCNCCCC[C@H](N)C(=O)NCCCNCCCCNCCCN [IVA18] | 0.05 µM and 0.061 µM | 0.14 µM |  | 0.075 µM | 0.079 µM | > 3 µM | > 3 µM |  |  |  |  |  |  | 
20 | CC(C)=CCC[C@H](C)CCNCCCC[C@@H](N)C(=O)NCCCNCCCCNCCCN [IVB28] |  |  |  |  | 10.7 µM |  |  |  |  | 17.8 µM | 19.8 µM | 18.9 µM | 5.6 µM | 
21 | NCCCNCCCCNCCCNC(=O)[C@H](CCCCNCc1ccccc1)NCc1ccccc1 [IVE30] |  |  | 4.2 µM | 1.7 µM |  |  |  |  |  |  |  |  |  | 
22 | CC(C)(C)CNCCCC[C@H](N)C(=O)NCCCNCCCCNCCCN [VA22] |  |  |  |  | 6.98 µM |  |  |  | 83.5 µM | > 100 µM | > 100 µM | > 100 µM | > 100 µM | 2.42 µM
23 | CCCC(CCC)NCCCC[C@H](N)C(=O)NCCCNCCCCNCCCN [VA26] |  |  |  |  | 3.91 µM |  |  |  |  | > 100 µM | > 100 µM | > 100 µM | > 100 µM | 
24 | NCCCNCCCCNCCCNC(=O)[C@@H](N)CCCCNCC12CC3CC(CC(C3)C1)C2 [VA27] |  |  |  |  | 6.45 µM |  |  |  |  | > 100 µM | > 100 µM | > 100 µM | > 100 µM | 26.8 µM
25 | CC(C)[C@@H]1CC[C@@H](C)CC1NCCCC[C@@H](N)C(=O)NCCCNCCCCNCCCN (stereo partly shown) [VB28] |  |  |  |  | 0.905 µM |  |  |  | 64.5 µM | > 100 µM | > 100 µM | > 100 µM | > 100 µM | 
